Reference: patent US11813339B2, “Method of use for therapeutic bone agents” (IGL Pharma, Inc., priority 2017, dated 2023)
Where two headings read alike, the source gives them in different places.

Tests used:
osteosarcoma = test: Treatment of dogs with osteosarcoma with LSA Sm-153-DOTMP; assay type: in vivo
Protocol: Seven dogs with osteosarcoma were treated with the Sm-153-DOTMP made from LSA Sm-153 of Example 1 at 1 mCi/kg.

tumor = test: Ascending dose trial in dogs (MTD); assay type: in vivo; conditions: for maximum tolerated dose: dogs
Text: The maximum tolerated dose is 1.75-2.0 mCi/kg; whereas for Sm-153-EDTMP the maximum tolerated dose was 1.0 mCi/kg. Stable or improved indices were experienced by 7 of 12 dogs.

[1] = system: prostate and breast bone metastases; conditions: cited from earlier work; for long-lived impurities (Eu isotopes) in patients on multiple doses: high-resolution gamma spectroscopy whole body counters
[2] = Residual activity in bone cancer patients after repeated doses, NaI crystal detection; assay type: in vivo; conditions: 30 mCi doses, after receiving 7 doses (of 10); activity due to long-lived radionuclidic impurities
Text: The Sm-153 prepared as in Example A was used to prepare doses of Sm-153-EDTMP. These doses were used to treat patients suffering from bone cancer. Patients were repeatedly treated (10 times) with 30 mCi of Sm-153-EDTMP as prepared in this example. The first 5 doses were given at 3 month intervals, and the second five doses given at 6 month intervals. After the decay of Sm-153, a NaI crystal was used to detect the amount of residual activity in the patients. […] The activity was due to long-lived radionuclidic impurities created during the target irradiation process.

[3] = about 550 patients, repeated 30 mCi doses

Substance	myelosuppression relative to similar dogs treated with 1 mCi/kg of HSA Sm-153-EDTMP (osteosarcoma; evidenced from the nadir in platelets and neutrophils)	uptake in the tumor (osteosarcoma; seven dogs with osteosarcoma, 1 mCi/kg)	stable or improved indices (tumor; ascending dose trial)	uptake in tumor (tumor; ascending dose trial of 13 dogs starting at 1.5 mCi/kg)	maximum tolerated dose (tumor)	lesion response [1, 3]	survival [1, 3]	long-lived impurities (Eu isotopes) in patients on multiple doses [1]	long-lived impurities (Eu isotopes) in patients on multiple doses ([1]; listed as HSA Sm-153-EDTMP)	residual activity detected in patients after decay of Sm-153 [2]
Sm-153 1,4,7,10-tetraazacyclododecanetetramethylenephosphonic acid [LSA Sm-153-DOTMP]	about one half	uptake in the tumor for all dogs	7 of 12	uptake in tumor for all seven dogs tested	1.75-2.0 mCi/kg	–	–	–	–	–
Sm-153-ethylenediaminetetramethylenephosphonic acid [Sm-153-EDTMP]	–	–	–	–	1.0 mCi/kg	lesion regression	improved survival	increases with every treatment	apparent	significant amounts of activity detected in patients, which increased with each dose given thereafter
